Laboratory results as given in US6420563B1, “Small molecule modulators of G protein-coupled receptor six” (Arena Pharmaceuticals, Inc., priority 1998, dated 2002).
Read-outs that look alike come from different tables or passages of the source.

Assays:
[1] = Food/water intake and body weight in 24-hour food deprived rats, oral gavage (PO); assay type: in vivo, rat
In short: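 Rats food-deprived 24 h, then dosed by oral gavage (6.75–54 mg/kg, or 100–200 μmol/kg for analogs). Food intake tracked over hours post-dose (2.5 h up to 8 h) along with body weight gain, compared with vehicle-treated rats.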

GPR6:Gsα-Fusion Protein = target: T1, GPR6:Gsα-Fusion Protein (Homo sapiens, UniProt P46095); experiment: [35S]GTPγS membrane binding assay (Example 4A); assay type: biochemical
T1 construct: expressed in transfected cells
In short: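 Membranes from stable 293 cells expressing the fusion protein were pre-incubated 5-10 min at RT with compounds (10 μM final) in GDP buffer. [35S]GTPγS (0.6 nM as added) was then bound for 60 min at RT and counted after centrifugation. Inverse agonism was scored as reduced receptor-driven GTPγS binding.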

[2] = Long-term (60 days) body weight, daily repeated IP administration, non-food deprived rats; assay type: in vivo, rat; details: 13.5 mg/kg IP once a day for 22 days, assessed for 60 days
Description: Long-term effects (60 days) of ARE112 were also examined. Animals (treatment, n=4; control, n=5) were treated once a day intraperitoneally with ARE112 for 22 days and assessed for a period of 60 days. On days 1 to 3, animals treated with dose of 13.5 mg/kg initially lost body weight and between day 4 and day 31, animals gradually gained weight, although still weighing less than vehicle treated animals. […] See, FIG. 11.

[3] = 100 μmol/kg PO, second assay, Table D, vehicle 19.25

T1 sequence (P46095 with tags, fused parts or gaps): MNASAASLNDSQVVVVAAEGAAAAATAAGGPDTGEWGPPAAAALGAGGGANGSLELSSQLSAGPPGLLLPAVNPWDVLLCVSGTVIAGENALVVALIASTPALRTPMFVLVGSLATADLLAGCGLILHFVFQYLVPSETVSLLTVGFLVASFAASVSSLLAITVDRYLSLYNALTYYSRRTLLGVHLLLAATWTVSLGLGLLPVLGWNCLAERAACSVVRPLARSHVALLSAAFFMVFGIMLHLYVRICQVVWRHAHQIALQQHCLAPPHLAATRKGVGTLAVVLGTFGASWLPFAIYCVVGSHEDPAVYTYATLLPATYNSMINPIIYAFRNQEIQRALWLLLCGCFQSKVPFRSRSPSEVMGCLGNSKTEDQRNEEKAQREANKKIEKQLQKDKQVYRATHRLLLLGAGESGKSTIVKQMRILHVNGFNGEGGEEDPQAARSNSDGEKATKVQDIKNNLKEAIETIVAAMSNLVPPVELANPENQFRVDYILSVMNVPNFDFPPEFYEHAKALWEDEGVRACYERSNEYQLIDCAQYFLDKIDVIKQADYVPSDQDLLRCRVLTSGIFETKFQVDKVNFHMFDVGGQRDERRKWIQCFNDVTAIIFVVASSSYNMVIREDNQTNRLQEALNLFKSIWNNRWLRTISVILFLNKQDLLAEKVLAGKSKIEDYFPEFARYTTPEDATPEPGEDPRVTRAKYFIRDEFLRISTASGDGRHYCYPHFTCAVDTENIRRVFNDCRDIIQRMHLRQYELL

IC50 (GPR6:Gsα-Fusion Protein; mean +/- standard deviation (number of assays in brackets), read-out: IC50 Values GTP Assay Example 4A): 420 nM
IC50 (GPR6:Gsα-Fusion Protein; representative IC50 curve, assay protocol of Example 4A, read-out: IC50 value against the GPR6 receptor (FIG. 4)): 150 nM
Structure (SMILES): O=C(N=C1SSC2=NCCN21)c1cccs1 [ARE112, N-(5,6-dihydro-3H-imidazo[2,1-c]-1,2,4-dithiazol-3-ylidene)-thiophen-2-carboxamide]
Cumulative Food Intake (g) (8 hr post administration) ([1]; 100 μmol/kg PO, second assay, Table D, vehicle 14.0): 8.1 g
Body Weight Gain (g) (6 hr post administration) [1, 3]: 6.25 g
Cumulative Water Intake (g) (6 hr post administration) [1, 3]: 10.5 g
body weight gain (FIG. 10C) ([1]; 100 μmol/kg oral, vehicle about 19.5 grams): 6 grams
food consumed ([1]; 27 mg/kg oral gavage, 2.5 hours, vehicle about 6 grams): about 6 grams
food consumed ([1]; 27 mg/kg oral gavage, 8 hours post-administration, vehicle about 14 grams): about 8 grams
food consumed ([1]; 54 mg/kg oral gavage, 2.5 hours, vehicle about 6 grams): ~4 grams
food consumed ([1]; 54 mg/kg oral gavage, 8 hours post-administration, vehicle about 14 grams): about 6 grams
body weight, long-term [2]: long-term decrease in body weight
